From US5472979A, “1,2,3,4-tetrahydronaphthalene compounds” (Adir et Compagnie, priority 1993, dated 1995)
Structures can show the parent of a compound that is named as a salt.

Tests used:
[1] = tested on: platelet aggregation induced by the TXA2 agonist, U46619; assay: Platelet aggregation in rabbits (PRP, U46619-induced); assay type: cell-based; settings: Oryctolagus cuniculus, rabbit PRP, 37° C., antagonist 3 min before U46619, read-out: IC50 Rabbit (inhibition of U46619-induced platelet aggregation)
Experimental: Rabbits (2-3 kg) are anesthetized with pentobarbital sodium (30 mg/kg i.v.). After cannulation of the left carotid artery, blood is withdrawn onto sodium citrate (0.109M) (1 vol. of citrate per 9 vol. of blood).
Platelet-rich plasma (PRP) is obtained by centrifugation (20° C.) at 250 g for 20 minutes, and platelet-poor plasma (PPP) by centrifugation at 1000 g (10 min). The number of platelets (PL) in the PRP is adjusted to between 300-350,000 PL/mm^3 by dilution with autologous PPP. The PRP is stored at the temperature of the room until the time of the test, and is used within 4 hours following withdrawal.
Platelet aggregation is carried out at 37° C. in siliconed glass tubes using an aggregometer. The PRP and PLs are stirred at 1000 rpm (revolutions per minute). In order to study the activity of thromboxane antagonists, the PRP is incubated for 1 min at 37° C., and the antagonist is then added for a period of 3 min before addition of the agonist U46619 […]. The final volume in the cell is then […]. The intensity of platelet aggregation is established by taking the maximum amplitude of the aggregation plots and is expressed as a percentage light transmission (% T).

[2] = tested on: platelet aggregation induced by the TXA2 agonist, U46619; assay: Platelet aggregation in dogs (PRP, adrenalin + U46619-induced); assay type: cell-based; settings: Canis lupus familiaris, 0.05 h, dog PRP, 37° C., 3 min, adrenalin (10 μM) then U46619, read-out: IC50 Dog (inhibition of aggregation to U46619 + adrenalin)
Experimental: After anesthetizing the animal with pentobarbital sodium (30 mg/kg i.v.), arterial blood is withdrawn onto sodium citrate (0.109M) (1 vol. of citrate per 9 vol. of blood). The platelet-rich plasma (PRP) is obtained after centrifugation (20° C.) at 200 g for 10 minutes. The number of platelets in the PRP is, on average, 300,000 PL/mm^3 The PRP is stored at the temperature of the room until the time of the test, and is used within 4 hours following withdrawal.
The PRP is incubated at 37° C. in the presence of the antagonist to be tested for 3 minutes. Aggregation is subsequently obtained by the addition of adrenalin (10μM) followed by that of U46619 […] 30 seconds later.

[3] = tested on: platelet aggregation induced by the TXA2 agonist, U46619; assay: Platelet aggregation in man (PRP, U46619-induced); assay type: cell-based; settings: human PRP, procedure of Example 19, U46619 0.3 mM, read-out: IC50 (inhibition of U46619-induced platelet aggregation)
Experimental: Dog platelets respond weakly to U46619 alone. […] The PRP is incubated at 37° C. in the presence of the antagonist to be tested for 3 minutes. Aggregation is subsequently obtained by the addition of adrenalin (10μM) followed by that of U46619 […] 30 seconds later.
Venous blood is obtained from human volunteers who have taken no aspirin for at least 14 days preceding the experiment. Blood is withdrawn onto sodium citrate (0.109M) (1 vol. of citrate per 9 vol. of blood). Platelet-rich plasma (PRP) is obtained after centrifugation (20° C.) at 200 g for 10 minutes. The number of platelets is, on average, 250,000 PL/mm^3. The PRP is stored at the temperature of the room until the time of the test, and is used within 2 hours following withdrawal. The antagonists are tested according to the procedure described in Example 19, using U46619 at the concentration of […].

platelet TXA2 receptors = biological target: T1, platelet TXA2 receptors (Homo sapiens, UniProt P21731); assay: Specific binding to human platelet membranes (3H-SQ29548 competition); settings: 25° C., Cheng and Prusoff
T1 construct: platelet membranes, prepared from washed, ground and centrifuged human platelets; from tissue; host or cells: human platelets (membranes)
T1 sequence (P21731 1-343): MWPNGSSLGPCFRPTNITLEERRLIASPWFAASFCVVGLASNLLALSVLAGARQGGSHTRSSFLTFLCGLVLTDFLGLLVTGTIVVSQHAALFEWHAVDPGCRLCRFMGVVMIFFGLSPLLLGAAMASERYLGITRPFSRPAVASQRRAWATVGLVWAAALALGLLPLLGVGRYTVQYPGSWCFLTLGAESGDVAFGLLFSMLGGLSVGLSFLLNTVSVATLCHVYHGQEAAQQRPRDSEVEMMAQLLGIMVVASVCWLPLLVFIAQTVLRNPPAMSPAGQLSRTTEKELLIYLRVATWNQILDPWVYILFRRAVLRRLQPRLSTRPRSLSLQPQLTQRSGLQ
Experimental: The experiments take place at a temperature of 25° C. in a final reaction volume of 0.2 ml in the presence of 0.1 mg of platelet membranes, prepared from washed, ground and centrifuged human platelets. Determination of the activity of the products of the invention is made by competition experiments, in which increasing concentrations of product are placed in the presence of a fixed concentration of ^3 H-SQ29548. This protocol makes it possible to produce inhibition curves for each antagonist studied. The 50% inhibitory concentration is determined by non-linear regression by the "Simplex" method described by M. S. Caceci et al., (Byte, 340-362, May 1984) calculated according to the mass action law model of C. Michaelis et al. (Biochem. Zeitschrift, 49, 333-369, 1913). The inhibition constant is then determined using the formula of Cheng and Prusoff (Biochem. Pharmacol., 22, 3099-3108, 1973).

[4] = tested on: platelet aggregation of U46619; assay: ex vivo platelet aggregation in dogs after oral administration; set-up: species or system dog
Experimental: The experiments are carried out on non-anesthetized dogs. After applying a tourniquet and introduction of a needle into the cephalic vein, blood is withdrawn onto sodium citrate (0.109M). The blood is stored at the temperature of the room. Platelet aggregation is measured in the total blood using an impedance probe in an aggregometer. The pro-aggregating activity of the thromboxane receptor agonist, U46619, is tested in the presence of adrenalin (10 μM). The products of the invention and the reference substances are administered to dogs orally after performing the control test. Blood samples are subsequently withdrawn at determined times: t=30 min, 1 h, 2 h, 4 h, 6 h, 24 h, 48 h, etc. until the aggregation activity of U46619 has fully returned.

[5] = tested on: guinea pig carotid artery; assay: Experimental thrombosis in guinea pig carotid artery; assay type: in vivo; settings: i.v. injection of 100 μg/kg, n=3; 10±2 CFV/20 min before the treatment; control 9±1 then 8±1
Experimental: The technique recently described by Roux et al., Thrombosis and Haemostasis, 71, 252-256 (1994), was used in order to measure the anti-thrombotic effect of our products. Male guinea pigs (390 to 420 g) were anesthetized with ketamine hydrochloride (90 mg/kg i.m.) and xylazine (12 mg/kg i.m.). A catheter is introduced into the left jugular vein in order to allow the i.v. injection of the substances. The right carotid artery is prepared and a Doppler probe (20 MHz) is installed, which allows the blood flow to be measured. At a distance of two mm from the Doppler probe a subendothelial lesion is produced using a clamp ("pinching"). After introduction of this lesion, the blood flow decreases and stops altogether (between 1 and 2 min). When the flow is at zero, the artery is touched, which removes the occlusive thrombus and restores the flow (see Roux et al., 1994). This thrombotic process is repeated and the cyclic decreases in the flow (CFV=cyclic flow variations) are expressed as a number per 20 min. In control carotid arteries (n=4), the CFVs are counted over 2 periods of 20 min: during the first period, 9±1 CFV/20 min are counted; during the second period, 8±1 CFV/20 min are counted. In a group of animals (n=3) treated with the compound of Example 1, 10±2 CFV/20 min are counted before the treatment and 0.3±0.3 CFV/20 min are counted alter an i.v. injection of 100 μg/kg.

Row | SMILES | IC50 [1] [µM] | IC50 [2] [µM] | further results
1 | O=C(O)CCn1c2c(c3ccccc31)C[C@H](NS(=O)(=O)c1ccc(F)cc1)CC2 [BAY U3405, reference compound] | 1.1 | 0.11 | IC50 [3]: 0.18 µM; Ki (platelet TXA2 receptors): 0.00361 µM; duration of total inhibition of aggregation ex vivo ([4]; 100 μg/kg per os): 6 h
2 | Cc1ccc2c(c1CCC(=O)O)CCC(NS(=O)(=O)c1ccc(Cl)cc1)C2 (stereo not shown) [Example 1, 3-{6-[(4-Chlorophenylsulfonyl)amino]-2-methyl-5,6,7,8-tetrahydronaphth-1-yl}propionic acid, sodium salt] | 0.24 | 0.028 | IC50 [3]: 0.084 µM; Ki (platelet TXA2 receptors): 0.00096 µM; duration of complete inhibition of U46619 platelet aggregation ex vivo ([4]; 10 μg/kg per os): at least 3 days; duration of inhibition of U46619 platelet aggregation ex vivo ([4]; 100 μg/kg per os): at least 8 days; inhibition of U46619 platelet aggregation ex vivo (words, compared with 100 μg/kg per os, at least 8 days) ([4]; 3 mg/kg per os): same result; duration of complete inhibition of U46619 platelet aggregation ex vivo ([4]; 10 to 3000 μg/kg, orally): at least 3 days; duration of complete inhibition of U46619 platelet aggregation ex vivo, highest dose ([4]; highest dose of 10 to 3000 μg/kg, orally): up to 11 days; cyclic flow variations (CFV) after treatment [5]: 0.3±0.3 CFV/20 min
3 | Cc1ccc2c(c1CCC(=O)O)CCC(NS(=O)(=O)c1ccc(F)cc1)C2 (stereo not shown) [Example 3, 3-{6-[(4-Fluorophenylsulfonyl)amino]-2-methyl-5,6,7,8-tetrahydronaphth-1-yl}propionic acid, sodium salt] | 0.27 | 0.01 | 
4 | Cc1ccc2c(c1CCC(=O)O)CCC(NS(=O)(=O)c1cccc3ccccc13)C2 (stereo not shown) [Example 8, 3-[6-(1 -Naphthylsulfonylamino)-2-methyl-5,6,7,8-tetrahydronaphth-1-yl]propionic acid] |  | 0.15 | 
5 | Cc1ccc(S(=O)(=O)NC2CCc3c(CCC(=O)O)cccc3C2)cc1 (stereo not shown) [Example 9, 3-[6-(4-Tolylsulfonylamino)-5,6,7,8-tetrahydronaphth-1-yl]propionic acid] | 0.32 | 0.015 | 
6 | Cc1cc(CCC(=O)O)c2c(c1)CC(NS(=O)(=O)c1ccc(F)cc1)CC2 (stereo not shown) [Example 11, 3-{6-[(4-Fluorophenylsulfonyl)amino]-3-methyl-5,6,7,8-tetrahydronaphth-1-yl}propionic acid] | 0.67 | 0.056 | 
7 | O=C(O)CCc1cccc2c1OCC(NS(=O)(=O)c1ccc(Cl)cc1)C2 (stereo not shown) [Example 16, 3-[3-(4-Chlorophenylsulfonyl)amino-8-chromanyl]propionic acid] | 0.25 | 0.02 | 
8 | O=C(O)CCc1cccc2c1OCC(NS(=O)(=O)c1ccc(F)cc1)C2 (stereo not shown) [Example 17, 3-[3-(4-Fluorophenylsulfonyl)aminochroman-8-yl]propionic acid] | 1.1 |  | 
